Data taken from patent US12371748B2, “Genetic markers for predicting responsiveness to therapy with HDL-raising or HDL mimicking agent” (Hoffmann-La Roche Inc., priority 2014, dated 2025).

Tested on: patients with evidence of coronary artery disease
Experiment: dal-PLAQUE-2: change in carotid intima-media thickness (B-mode ultrasound) by ADCY9 genotype
Assay type: in vivo, human
Text: The dal-PLAQUE-2 study (Tardif J C et al, Circulation Cardiovascular imaging 2011; 4:319-33) was a phase 3b multicenter, double-blind, randomized, placebo-controlled, parallel group trial designed to evaluate the effect of dalcetrapib on atherosclerotic disease progression in patients with evidence of coronary artery disease and carotid intima media thickness of at least 0.65 mm in the far wall of the common carotid arteries, as assessed by B-mode ultrasonography. A total of 931 patients were randomized to receive dalcetrapib 600 mg daily or matching placebo with intended treatment duration of 24 months. However, the trial was terminated prematurely concurrent with the termination of dal OUTCOMES (the latter due to futility). Patients continued study medication until they returned for follow-up carotid imaging at 12 months. Carotid B-mode ultrasound recordings at baseline, month 6, and month 12 were analyzed centrally at the core laboratory of the Montreal Heart Institute. Intima-media thickness (IMT) was analyzed on the far wall of the common carotid arteries. A segment of 10 mm in length of the common carotid artery was analyzed on serial examinations using an automated edge detection software (Carotid Analyzer, Medical Imaging Applications, Coralville, Iowa). Among the 411 participants in the dal-PLAQUE-2 trial who consented to the genetic study, 386 had imaging measures at baseline, 6 months and 12 months (194 and 192 in the dalcetrapib and placebo arms respectively). DNA was extracted from whole blood. The research protocols were approved by the relevant institutional review boards or ethics committees and all human participants gave written informed consent.
All acquired carotid ultrasound recordings were analyzed at the core laboratory of the Montreal Heart Institute by experienced technicians supervised by a physician. Images were required to meet quality and inclusion and exclusion criteria for eligibility prior to random assignment to study treatment. The methods for carotid intima-media thickness analysis included side-by-side viewing of baseline and follow-up studies.
Carotid arterial wall segments were assessed in a longitudinal view, perpendicular to the ultrasound beam, with a horizontal display of the arterial image in order to view the interfaces between blood and vascular structures on the longest possible segment. The localization of the end of the common carotid artery was used as the landmark in repositioning and analyzing comparative length of segments in baseline and follow-up studies. Intima-media thickness was analyzed on the far wall of the right and left common carotid arteries, to reduce variability of measurements. The average of the mean intima-media thickness values of the right and left common carotid arteries was used. A matched segment of 10 mm in length of the common carotid artery was analyzed on serial examinations (baseline, 6 months and 12 months), starting 5 mm proximal to the carotid bifurcation. The edge detection software Carotid Analyzer (Medical Imaging Applications LLC, Coralville, Iowa) was used to analyze intima-media thickness using the automated option. Two sets of carotid artery borders were identified: First, the media-adventitia borders were determined and verified by the reader. When required, their locations were semi-automatically modified to the correct location. When these borders were approved, the lumen-intima boundaries were automatically detected using the media-adventitia borders for guidance. Frames from looped sequences of intima-media thickness were selected for reading, and poor quality outlier frames were removed from the analysis when required.
For the dal-Plaque-2 population, mixed regression models for repeated measures analysis were tested in SAS software. The dal-Plaque-2 tested endpoint was the mean of IMT measures of common carotid arteries at the 6-month and the 12-month visits, using the baseline measure as covariate. […]

CCC(CC)CC1(C(=O)Nc2ccccc2SC(=O)C(C)C)CCCCC1 [dalcetrapib, thioisobutyric acid S-(2-{[1-(2-ethyl-butyl)-cyclohexanecarbonyl]-amino}-phenyl) ester]
Change from baseline in carotid intima-media thickness, Mean (rs1967309, heterozygotes, M12): −0.001 mm | Change from baseline in carotid intima-media thickness, Mean (rs1967309, homozygotes for major allele, M06): 0.006 mm | Change from baseline in carotid intima-media thickness, Mean (rs1967309, homozygotes for major allele, M12): 0.005 mm | Change from baseline in carotid intima-media thickness, Mean (rs1967309, homozygotes for minor allele, M12): −0.021 mm | change in IMT after 12 months of treatment (rs1967309 AA homozygotes): −0.021±0.083 mm | change in IMT after 12 months of treatment (rs1967309 GG homozygotes): +0.005±0.042 mm | change in IMT after 12 months of treatment (rs1967309 heterozygotes): −0.001±0.048 mm | Change from baseline in carotid intima-media thickness, Mean (rs2238448, heterozygotes, M06): −0.003 mm | Change from baseline in carotid intima-media thickness, Mean (rs2238448, heterozygotes, M12): 0.000 mm | Change from baseline in carotid intima-media thickness, Mean (rs2238448, homozygotes for major allele, M06): 0.011 mm | Change from baseline in carotid intima-media thickness, Mean (rs2238448, homozygotes for major allele, M12): 0.009 mm | Change from baseline in carotid intima-media thickness, Mean (rs2238448, homozygotes for minor allele, M06): −0.010 mm | Change from baseline in carotid intima-media thickness, Mean (rs2238448, homozygotes for minor allele, M12): −0.027 mm | change in IMT after 12 months of treatment (rs2238448 CC (common allele homozygotes)): +0.009±0.038 mm | change in IMT after 12 months of treatment (rs2238448 TT (minor allele homozygotes)): −0.027±0.079 mm | change in IMT after 12 months of treatment (rs2238448 heterozygotes): 0.000±0.048 mm | Change from baseline in carotid intima-media thickness, Mean (rs2239310, heterozygotes, M06): −0.004 mm | Change from baseline in carotid intima-media thickness, Mean (rs2239310, heterozygotes, M12): −0.003 mm | Change from baseline in carotid intima-media thickness, Mean (rs2239310, homozygotes for major allele, M06): 0.004 mm | Change from baseline in carotid intima-media thickness, Mean (rs2239310, homozygotes for major allele, M12): 0.001 mm | Change from baseline in carotid intima-media thickness, Mean (rs2239310, homozygotes for minor allele, M06): −0.001 mm | Change from baseline in carotid intima-media thickness, Mean (rs2239310, homozygotes for minor allele, M12): −0.002 mm | Change from baseline in carotid intima-media thickness, Mean (rs2283497, heterozygotes, M06): −0.001 mm | Change from baseline in carotid intima-media thickness, Mean (rs2283497, heterozygotes, M12): 0.005 mm | Change from baseline in carotid intima-media thickness, Mean (rs2283497, homozygotes for minor allele, M06): −0.005 mm | Change from baseline in carotid intima-media thickness, Mean (rs2283497, homozygotes for minor allele, M12): −0.006 mm | Change from baseline in carotid intima-media thickness, Mean (rs2531967, heterozygotes, M06): −0.008 mm | Change from baseline in carotid intima-media thickness, Mean (rs2531967, heterozygotes, M12): −0.006 mm | Change from baseline in carotid intima-media thickness, Mean (rs2531967, homozygotes for minor allele, M06): −0.007 mm | Change from baseline in carotid intima-media thickness, Mean (rs2531967, homozygotes for minor allele, M12): −0.031 mm | Change from baseline in carotid intima-media thickness, Mean (rs2531971, heterozygotes, M06): −0.002 mm | Change from baseline in carotid intima-media thickness, Mean (rs2531971, heterozygotes, M12): 0.002 mm | Change from baseline in carotid intima-media thickness, Mean (rs2531971, homozygotes for major allele, M06): 0.008 mm | Change from baseline in carotid intima-media thickness, Mean (rs2531971, homozygotes for major allele, M12): −0.002 mm | Change from baseline in carotid intima-media thickness, Mean (rs2531971, homozygotes for minor allele, M06): −0.010 mm | Change from baseline in carotid intima-media thickness, Mean (rs2531971, homozygotes for minor allele, M12): −0.016 mm | Change from baseline in carotid intima-media thickness, Mean (rs3730119, heterozygotes, M06): −0.002 mm | Change from baseline in carotid intima-media thickness, Mean (rs3730119, heterozygotes, M12): 0.004 mm | Change from baseline in carotid intima-media thickness, Mean (rs3730119, homozygotes for minor allele, M06): 0.006 mm | Change from baseline in carotid intima-media thickness, Mean (rs3730119, homozygotes for minor allele, M12): −0.028 mm | Change from baseline in carotid intima-media thickness, Mean (rs4786454, heterozygotes, M06): −0.007 mm | Change from baseline in carotid intima-media thickness, Mean (rs4786454, heterozygotes, M12): −0.005 mm | Change from baseline in carotid intima-media thickness, Mean (rs4786454, homozygotes for minor allele, M06): −0.020 mm | Change from baseline in carotid intima-media thickness, Mean (rs4786454, homozygotes for minor allele, M12): −0.049 mm | Change from baseline in carotid intima-media thickness, Mean (rs8049452, heterozygotes, M06): −0.002 mm | Change from baseline in carotid intima-media thickness, Mean (rs8049452, heterozygotes, M12): 0.003 mm | Change from baseline in carotid intima-media thickness, Mean (rs8049452, homozygotes for major allele, M06): −0.008 mm | Change from baseline in carotid intima-media thickness, Mean (rs8049452, homozygotes for major allele, M12): −0.013 mm | Change from baseline in carotid intima-media thickness, Mean (rs8049452, homozygotes for minor allele, M06): 0.020 mm | Change from baseline in carotid intima-media thickness, Mean (rs8049452, homozygotes for minor allele, M12): 0.006 mm | Change from baseline in carotid intima-media thickness, Mean (rs8061182, heterozygotes, M06): 0.000 mm | Change from baseline in carotid intima-media thickness, Mean (rs8061182, heterozygotes, M12): 0.007 mm | Change from baseline in carotid intima-media thickness, Mean (rs8061182, homozygotes for minor allele, M06): 0.016 mm
